Experiment in all cases: Agar dilution susceptibility of anaerobic bacteria (Chart 1)
What all share (format): cell-based
On the technique in general: Agar dilution tests growth on a series of plates holding different concentrations.

The subject of assay [1] is Bacteroides fragilis sp. fragilis 103. To be noted: agar dilution, 37° C., Bacteroides fragilis sp. fragilis 103; for MIC: Bacteroides fragilis, 24 h, read-out: 24 Hr. MIC.
Assay [2] deals with Bacteroides fragilis sp. fragilis 106. To be noted: agar dilution, 37° C., Bacteroides fragilis sp. fragilis 106; for MIC: Bacteroides fragilis, 24 h, read-out: 24 Hr. MIC.
For assay [3], the system named is Bacteroides fragilis sp. fragilis 107. To be noted: Bacteroides fragilis, 24 h, agar dilution, 37° C.; Bacteroides fragilis sp. fragilis 107; read-out: 24 Hr. MIC.
Assay [4] relates to Bacteroides fragilis sp. fragilis 110. To be noted: agar dilution, 37° C., Bacteroides fragilis sp. fragilis 110; for MIC: Bacteroides fragilis, 24 h, read-out: 24 Hr. MIC.
For assay [5], the system named is Bacteroides fragilis sp. fragilis 111. To be noted: agar dilution, 37° C., Bacteroides fragilis sp. fragilis 111; for MIC: Bacteroides fragilis, 24 h, read-out: 24 Hr. MIC.
Assay [6] has as its system Bacteroides fragilis sp. fragilis 1470. To be noted: agar dilution, 37° C., Bacteroides fragilis sp. fragilis 1470; for MIC: Bacteroides fragilis, 24 h, read-out: 24 Hr. MIC.
Assay [7] concerns Bacteroides fragilis sp. fragilis 2. To be noted: Bacteroides fragilis, 24 h, agar dilution, 37° C.; Bacteroides fragilis sp. fragilis 2; read-out: 24 Hr. MIC.
Assay [8] relates to Bacteroides fragilis sp. fragilis 9. To be noted: agar dilution, 37° C., Bacteroides fragilis sp. fragilis 9; for MIC: Bacteroides fragilis, 24 h, read-out: 24 Hr. MIC.
Assay [9] relates to Bacteroides fragilis sp. thetaiotaomicron 1438. To be noted: agar dilution, 37° C., Bacteroides fragilis sp. thetaiotaomicron 1438; for MIC: Bacteroides fragilis, 24 h, read-out: 24 Hr. MIC.
For assay [10], the system named is Bacteroides fragilis sp. thetaiotaomicron 1900A. To be noted: agar dilution, 37° C., Bacteroides fragilis sp. thetaiotaomicron 1900A; for MIC: Bacteroides fragilis, 24 h, read-out: 24 Hr. MIC.
Assay [11] has as its system Actinomyces israelii W855. To be noted: 24 h, agar dilution, 37° C., read-out: 24 Hr. MIC.
Assay [12] has as its system Clostridium septicum 1128. To be noted: 37° C.; for MIC: Clostridium septicum, 1128, 24 h. The protocol: The susceptibility of anaerobic bacteria, both gram positive and gram negative, to a representative number of the novel compounds of this application was determined using the agar dilution method. The bacteria used were isolated from patients hospitalized at the Indiana Univerisity Medical Center. The isolates were identified in the anaerobe laboratory of the Medical Center by the criteria established by Dowell et al., Laboratory Methods in Anaerobic Bacteriology. Public Health Serv. Publ. NO. 1803 (1968) [Center for Disease Control, Atlanta, Ga.]; and by Smith et al., The Pathogenic Anaerobic Bacteria, pages 96- 136 (1968) [Charles C. Thomas, Publisher, Springfield, Ill.]. All the organisms were maintained in chopped meat glucose medium (Scott Labs) at room temperature.
The method used for the agar dilution tests was based on the studies of Sutter et al., Antimicrob. Ag. Chemother. 3, 188-193 (1973). The strains of anaerobic bacteria were grown in 16×× 120 mm. tubes for 16 to 18 hours in Thioglycolate medium without indicator-- 135C (Becton, Dickinson and Co.), to which was added 5 mcg. of hemin per milliliter prior to autoclaving, plus 1 mg. of sodium bicarbonate and 0.1 mcg. of filter-sterilized menadione per milliliter after autoclaving. The strains were adjusted to the turbidity of the No. 1 McFarland standard in Thioglycolate medium without indicator-- 135C containing an additional 0.13 percent Bacto-agar (Difco). Each strain was then applied to the surface of the petri plate (100 mm× 15 mm.) by means of a replicator.
For the agar dilution studies, two-fold dilutions of the test compounds were prepared in deionized water to which was then added laked sheep blood and filter-sterilized menadione so the concentrations after the agar dilution were 5 percent and 10 mcg./ml. respectively. An equal volume of double strength Brucella agar (Becton, Dickinson and Co.) was mixed with each dilution in a water bath held at 50° C. and then poured onto the petri dishes.
All of the procedures were done inside a plastic glove box, except for the incubation of the growth tubes and the pouring of the plates. After the plates hardened, they were put inside the glove box for a minimum of 2 hours before they were inoculated. Generally, the glove box procedures of Aranki et al., Applied Microbiology 17, 568-576 (1969), were followed, but the following modifications were used. Dry materials were introduced into the glove box by evacuating the lock to 28 inches of mercury and filling once with nitrogen gas, followed by evacuating in the same manner and filling with an 80 percent nitrogen plus 10 percent CO2 plus 10 percent hydrogen gas mixture. Liquid media and agar plates were introduced into the glove box by evacuating the lock to 10 inches of mercury and filling with gas four times. The nitrogen gas was used to fill the lock for the first two cycles of evacuation, with the gas mixture described above used for the final two fillings.
All the plates were incubated at 37° C. in Gas Pak jars (Becton, Dickinson and Co.) containing palladium-coated alumina catalysts (reactivated after each use). The results of the agar dilution tests were read after about 24 hours of incubation. The minimum inhibitory concentration (MIC) was recorded as the lowest concentration of test compound at which there was no growth.
The test compounds are identified by the number of the example describing their preparation. The antibiotics clindamycin (C), and erythromycin (E) were also run simultaneously with the novel compounds of this application,for comparison purposes, and the results are included in Chart 1 below.

Assay [13] concerns Peptococcus asaccharolyticus 1302. To be noted: agar dilution, 37° C., Peptococcus asaccharolyticus 1302; for MIC: Peptoniphilus asaccharolyticus, 1302, 24 h, read-out: 24 Hr. MIC.
The next assay concerns Peptococcus prevoti 1281. To be noted: for MIC: 24 h, read-out: 24 Hr. MIC, agar dilution, 37° C.; for 24 Hr. MIC: agar dilution, 37° C.
The test system of assay [14] is Bacteroides melaninogenicus 1856/28. To be noted: agar dilution, 37° C., Bacteroides melaninogenicus 1856/28; for MIC: Prevotella intermedia, 1856/28, 24 h, read-out: 24 Hr. MIC.
The test system of assay [15] is Fusobacterium symbiosum 1470. To be noted: agar dilution, 37° C., Fusobacterium symbiosum 1470; for MIC: Fusobacterium, 1470, 24 h, read-out: 24 Hr. MIC.
Assay [16] has as its system Fusobacterium necrophorum 6054A. To be noted: agar dilution, 37° C., Fusobacterium necrophorum 6054A; for MIC: Fusobacterium necrophorum, 6054A, 24 h, read-out: 24 Hr. MIC.

Consider five compounds from patent publication US4029671A, “3-[(5-nitro-2-imidazolyl)pyrazol-5-yl]oxamic acid derivatives” (priority 1976, dated 1977).

≈ marks a conversion by molar mass, not a printed value. Structures can show the parent of a compound that is named as a salt.

By MIC is commonly meant the smallest concentration in the dilution series that meets the test's criterion for growth inhibition. Regarding `CCC[C@@H]1C[C@@H](C(=O)N[C@@H]([C@H]2O[C@H](SC)[C@H](O)[C@@H](O)[C@H]2O)[C@H](C)Cl)N(C)C1` [C, clindamycin, reference compound], the MIC was at most 0.06 µg/mL in assay [1]; 0.125 µg/mL (≈ 0.294 µM) in assay [2]; 0.25 µg/mL (≈ 0.588 µM) in assay [3]; 0.125 µg/mL (≈ 0.294 µM) in assay [4]; 1 µg/mL (≈ 2.35 µM) in assay [5]; 0.25 µg/mL (≈ 0.588 µM) in [6]. The MIC in assay [7] is 0.25 µg/mL (≈ 0.588 µM); in [8], 0.125 µg/mL (≈ 0.294 µM); in assay [9], 0.5 µg/mL (≈ 1.18 µM); in [10] it was 4 µg/mL (≈ 9.41 µM); in [11], at most 0.5 µg/mL; in [12], 8 µg/mL (≈ 18.8 µM). In addition, the MIC in assay [13] was at most 0.5 µg/mL; in the assay with Peptococcus prevoti 1281, 32 µg/mL (≈ 75.3 µM); in assay [14], at most 0.5 µg/mL; in assay [15], at most 0.5 µg/mL; in assay [16], at most 0.5 µg/mL.
In the case of `CCOC(=O)C(=O)Nc1c(C#N)c(-c2ncc([N+](=O)[O-])n2C)nn1C` [Example 1, N-[4-Cyano-1-methyl-3-(1-methyl-5-nitroimidazol-2-yl)pyrazol-5-yl]oxamic acid, ethyl ester], the “24 Hr. MIC” value in assay [1] was at most 0.03 µg/mL; in assay [12] it was over 128 µg/mL; in [13], 1.0 µg/mL; in assay [14], 16 µg/mL. Also, the MIC in assay [2] is 0.125 µg/mL (≈ 0.36 µM); in assay [3], 0.25 µg/mL (≈ 0.72 µM); in [4] it was 0.25 µg/mL (≈ 0.72 µM); in assay [5], 0.125 µg/mL (≈ 0.36 µM); in assay [6] it was 0.125 µg/mL (≈ 0.36 µM); in assay [7], 0.25 µg/mL (≈ 0.72 µM). For the same compound, the MIC in assay [8] is 0.25 µg/mL (≈ 0.72 µM); in assay [9], 0.25 µg/mL (≈ 0.72 µM); in assay [10], 0.25 µg/mL (≈ 0.72 µM); in assay [11], over 64 µg/mL; in the assay on Peptococcus prevoti 1281, at most 0.25 µg/mL; in [15] it was at most 0.25 µg/mL. Moreover, the MIC in assay [16] is at most 0.25 µg/mL.
For `CCOC(=O)C(=O)Nc1c(C#N)c(-c2ncc([N+](=O)[O-])n2C)nn1C` [Example 2, N-[4-Cyano-1-methyl-3-(1-methyl-5-nitroimidazol-2-yl)pyrazol-5-yl]oxamic acid, ethyl ester, sodium salt], the “24 Hr. MIC” value came to 0.125 µg/mL in assay [1] (sodium salt); 0.25 µg/mL in assay [2] (sodium salt); 0.25 µg/mL in [4] (sodium salt); 0.25 µg/mL in assay [5] (sodium salt); 0.25 µg/mL in assay [6] (sodium salt); 0.5 µg/mL in assay [8] (sodium salt). Also, the “24 Hr. MIC” value in [9] (sodium salt) is 0.25 µg/mL; in assay [10] (sodium salt), 0.25 µg/mL; in assay [12] (sodium salt) it was over 64 µg/mL; in [13] (sodium salt), at most 0.25 µg/mL; with Peptococcus prevoti 1281 (sodium salt) it was 0.5 µg/mL; in assay [14] (sodium salt) it was 16 µg/mL. Moreover, the “24 Hr. MIC” value in [15] (sodium salt) and in [16] (sodium salt) was at most 0.25 µg/mL in each case.
In the case of `Cn1nc(-c2ncc([N+](=O)[O-])n2C)c(C#N)c1NC(=O)C(=O)NN` [Example 6, 5-[4-Cyano-1-methyl-3-(1-methyl-5-nitroimidazol-2-yl)pyrazol5-yl]semioxamazide], the MIC in assay [1] came out at 0.06 µg/mL (≈ 0.18 µM); in [2] it was 0.25 µg/mL (≈ 0.75 µM); in [3], 0.5 µg/mL (≈ 1.5 µM); in [4], 0.5 µg/mL (≈ 1.5 µM); in [5], 0.25 µg/mL (≈ 0.75 µM); in assay [6] it was 0.25 µg/mL (≈ 0.75 µM). The MIC in [7] is 0.25 µg/mL (≈ 0.75 µM); in assay [8], 0.25 µg/mL (≈ 0.75 µM); in [9], 1 µg/mL (≈ 3 µM); in assay [10], 0.25 µg/mL (≈ 0.75 µM); in assay [11], over 64 µg/mL; in [12], over 128 µg/mL. The MIC in assay [14] was 8 µg/mL (≈ 24 µM); in assay [15] it was at most 0.25 µg/mL; in [16] it was at most 0.25 µg/mL. Also, the “24 Hr. MIC” value in assay [13] was at most 0.25 µg/mL; with Peptococcus prevoti 1281, 0.5 µg/mL.
`Cn1nc(-c2ncc([N+](=O)[O-])n2C)c(C#N)c1NC(=O)C(=O)c1ccccc1` [Example 10, N-[4-cyano-1-methyl-3-(1-methyl-5-nitroimidazol-2-yl)pyrazol-5-yl]-2-phenylglyoxylamide]: the MIC in [1], in assay [2], in assay [3], in assay [4], in [5] and in assay [6] was at most 0.03 µg/mL in each case. For the same compound, the MIC in [7] was at most 0.03 µg/mL; in assay [8] it was at most 0.03 µg/mL; in [11] it was over 64 µg/mL; in assay [13], 1 µg/mL (≈ 2.64 µM); in assay [14], 32 µg/mL (≈ 84.4 µM); in [15], at most 0.03 µg/mL. The MIC in assay [16] is 0.5 µg/mL (≈ 1.32 µM). Moreover, the “24 Hr. MIC” value is at most 0.03 µg/mL in assay [9], at most 0.03 µg/mL in assay [10], 1.0 µg/mL in [12] and 16 µg/mL in the assay with Peptococcus prevoti 1281.
